How the values were obtained:
PGE2 = PGE2 level in ischemic brain (ELISA); assay type: in vivo, Wistar rats; conditions: HHcy rats, MCAO 60 minutes, six hours of reperfusion, NVP-AAM077 1.2 mg/kg intravenous at onset of insult
Procedure: Wistar rats were made hyperhomocysteinemic using osmotic pump containing L-homocysteine. Animals were hyperhomocysteinemic (19-23 μM) within three days of pump implantation. Ischemic stroke was induced by MCAO for 60 minutes followed by reperfusion for six hours. Tissue punches from the ipsilateral striatum and cortex were lysed in ice-cold Phosphate buffered saline (pH 7.4) containing phosphatase inhibitor, sonicated three times in five-second bursts and placed on ice (two minutes) between each burst of sonication. The lysed cell suspensions were centrifuged at 10,000 rpm (10 minutes) and the supernatant was collected in another tube. Equal amounts of protein from the supernatant were processed for PGE2 and MCP-1 levels using respective ELISA kit.

[Ca^2+]i = Intracellular Ca^2+ by Fura2 imaging, WT and GluN2A KO mouse neuronal cultures; assay type: cell-based, mice; conditions: somata and processes, L-homocysteine 50 μM, 60 min
Procedure: Embryos obtained from pregnant Sprague Dawley rats (16-17-day gestation) or wild type (WT) and GluN2A KO mice (15-16-day gestation) were used to establish primary cortical neuronal cultures as previously described (Poddar and Paul, 2009, J Neurochem 110:1095-1106; Poddar and Paul, 2013, J Neurochem 124:558-570; Poddar et al., 2017, J Neurochem 142:560-573). Neurons were grown on either (a) 35-mm culture dishes (MatTek Corp., Ashland, Mass.) coated overnight with poly-D-lysine (50 μg/ml) and laminin (10 μg/ml) for Ca^2+ imaging studies, (b) poly-D-lysine-coated 60 mm dishes (Corning BIOCOAT, Corning Inc., Corning, N.Y.) for biochemical studies, or (c) poly-D-lysine-coated 4-well culture slides (Corning BIOCOAT, Corning Inc., Corning, N.Y.) for cell death assay. Neurons were maintained in culture for 12-13 days before experiment. The cells were treated with freshly prepared L-homocysteine (50 μM) in Hank's balanced salt solution containing 50 μM of glycine (Lipton et al., 1997, Proceedings of the National Academy of Sciences of the United States of America 94:5923-5928; Poddar and Paul, 2009, J Neurochem 110:1095-1106; Poddar and Paul, 2013, J Neurochem 124:558-570; Poddar et al., 2017, J Neurochem 142:560-573) for the specified time periods. In a parallel series of experiments, cells were treated with glutamate (50 μM) for the specified time periods. Cells were then processed for live cell imaging, immunoblotting or cell death assay. In some experiments EGTA, DL-AP5, NVP-AAM077, Ro 25-6981 or PD98059 was added 15 minutes prior to L-homocysteine or glutamate treatment.
[Ca^2+]i in neurons was determined using the fluorescent indicator, Fura2-AM. […] Fluorescence excitations (340 and 380 nm) were provided with Sutter LB-LS/30 Lambda xenon arc lamp and fluorescence emissions (510 nm) were captured using a CCD camera (Teledyne Photometries, Tucson, Ariz.). […] Maximum and minimum fluorescence ratios were determined from Fura2 loaded cells treated with ionomycin (5 μM) in calcium containing medium (2 mM) or in calcium free media with EGTA (0.5 mM).

[1] = system: rat cortical neuron cultures; test: OGD / re-oxygenation cell death, Hoechst DNA staining; assay type: cell-based; conditions: OGD two hours in the presence of homocysteine 50 μM, re-oxygenation 22 hours, vs OGD alone
Procedure: At specified time periods (one hour, two hours, and three hours) during OGD alone or OGD in the presence of L-Hcy (50 μM), cells were removed from the chamber and lysed for immunoblot analysis. Some cultures were treated with L-Hcy (three hours) during the OGD insult in the presence or absence of NVP-AAM077 (30 nM; 3 h). […] Cells were then subjected to staining with Hoechst 33342 dye for 15 minutes, washed extensively with PBS, and analyzed using fluorescent microscopy to assess nuclear damage. To quantitatively assess the percentage of pyknotic nuclei, a total of 1000 cells were counted for each set of experiments (Poddar et al., 2010, J Neurochem 115, 1350-1362).

Compound | PGE2 level in ischemic hemisphere (cortex and striatum) (PGE2) | Fura2 fluorescence ratio and [Ca^2+]i ([Ca^2+]i; neurons from GluN2A KO mice) | Fura2 fluorescence ratio and [Ca^2+]i ([Ca^2+]i; neurons from WT mice) | OGD-induced cell death [1]
C[C@H](NC(c1cccc2[nH]c(=O)c(=O)[nH]c12)P(=O)(O)O)c1ccc(Br)cc1 (stereo partly drawn) [NVP-AAM077, ({[(1S)-1-(4-bromophenyl)ethyl]amino}-(2,3-dioxo-1,4-dihydroquinoxalin-5-yl)methyl)phosphonic acid] | attenuated the increase in the level of both PGE2 and MCP-1 |  |  | 
N[C@@H](CCS)C(=O)O [L-homocysteine] |  | fails to increase Fura2 fluorescence ratio or [Ca^2+]i | progressive increase in Fura2 fluorescence ratio and [Ca^2+]i | increases by two-fold

Reference: patent US11541065B2, “Compositions and methods for treating brain injury” (UNM RAINFOREST INNOVATIONS, priority 2018, dated 2023)
